For the test, the target named is Galectin-3 (Homo sapiens, UniProt P17931). The test can be described thus: Biological Assay: ASSAY BUFFER Composition: 25 mM HEPES, 100 mM NaCl, 0.005% Tween 20, 0.05% BSA prepared in sterile water (all reagents from Sigma). PROTOCOL: The Gal-3 assays were performed in 384 white Opti plates in three replicates at room temperature with gentle shaking at 250-300 rpm From the original stocks, […] working stock concentrations of His-tagged recombinant human Gal-3 (hGal-3) and that of B-ASF were prepared. From the working stock, 20 μl of hGal-3 (15 nM) and 20 μl B-ASF (15 nM) were added to the plates. In Negative Control, only hGal-3 was added. A concentration range of 50× working stocks were prepared for the compounds in 100% DMSO. Aliquots of 1 uL of the compounds were added to the wells and pre-incubated with 20 μl hGal-3 per well for 30 minutes Then 20 μl B-ASF were added and incubated for another 1 hour. To detect the signal, 5 μ(final conc. of 1.0 nM) terbium labelled Anti-His antibody was added and incubated for 30 min followed by adding 5 μ(final conc. of 20 nM) Streptavidin d2 and incubation for another 1 hour. The assay signal was detected using HTRF screen protocol (Excitation wavelength=340 nm, emission wavelength=615 nm/665 nm) on Envision 2104 Multilabel Reader. Data analysed using Toolset and Curve Master. Results are reported in the experimental section (IC50 in μM). On the technique in general: In TR-FRET formats the signal depends on donor and acceptor labels being close together.
Chain of Galectin-3 (P17931 whole entry): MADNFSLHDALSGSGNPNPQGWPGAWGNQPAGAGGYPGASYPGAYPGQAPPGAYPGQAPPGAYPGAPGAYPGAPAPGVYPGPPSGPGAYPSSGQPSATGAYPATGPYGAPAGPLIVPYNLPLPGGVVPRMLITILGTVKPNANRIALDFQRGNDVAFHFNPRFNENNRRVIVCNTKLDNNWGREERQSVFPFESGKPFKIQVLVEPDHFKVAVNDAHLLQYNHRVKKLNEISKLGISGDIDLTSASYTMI

As to `NC(=O)CO[C@@H]1[C@@H](n2cc(-c3cc(F)c(F)c(F)c3)nn2)[C@@H](O)[C@@H](CO)O[C@@H]1Sc1ccc(Cl)c(Cl)c1`, the IC50 (commonly the midpoint of a concentration-inhibition curve) stood at 200 nM.

For `COCCO[C@@H]1[C@@H](n2cc(-c3cc(F)c(F)c(F)c3)nn2)[C@@H](O)[C@@H](CO)O[C@@H]1Sc1ccc(Cl)c(Cl)c1`, the IC50 was found to be 224 nM.

(Values after ChEMBL document CHEMBL5728593, “Small molecule inhibitors of Galectin-3” (2021).)
